This is an account of results in patent publication US20150056191A1, “IGF1 BIOMARKER FOR IGF1R INHIBITOR THERAPY” (MERCK SHARP & DOHME CORP., priority 2012, published 2015).

“Also recorded” adds a separate entry of the source. Read-outs that look alike come from different tables or passages of the source.

One series relates to H2122 NSCLC cells. Put plainly: H2122 cell growth with and without IGF1 (Cell Titer-Glo). The series is classed as cell-based. To be noted: 10 ug/ml MK-0646, 96 hours, 2% fetal calf serum. As to the method:
H2122 cells were obtained from the American Type Culture Collection (ATCC) and propagated according to the conditions provided by ATCC in media at 37° C. H2122 cells in low serum (2% fetal calf serum (Hyclone), at 2000 cells/well, were plated in a 96 well plate and incubated with 10 ug/ml MK-0646 or vehicle control for 96 hours in the presence or absence of IGF1 (10 ng; SIGMA). Cells were harvested at day 0 and day 4 and cell growth was measured by Cell Titer-Glo® ([…]) according to manufacturer instructions. The relative cell proliferation was calculated by normalizing to day 0 levels.
In general terms: In ATP-based viability assays light output follows the ATP content of the culture.

The target in a further series is IGF1 receptor (Homo sapiens, UniProt P08069). Put plainly: Blocking of IGF1 binding to the IGF1 receptor.
Series [1] relates to primary colorectal xenograft tumor models. Put plainly: Primary colorectal xenograft tumor models, tumor growth inhibition. It counts as in vivo. The procedure: Primary colorectal xenograft tumor models were established from 10 independent colorectal tumors obtained directly from cancer patients. The relative levels of IGF1RNA expression were determined by gene expression profiling using genomic microarrays. […] These preclinical data provided in vivo evidence that increase sensitivity to the anti-IGF1R antibody, MK-0646, was strongly associated with increase IGF1RNA expression in the primary tumors.

For series [2] the following is noted: cited from earlier work.

As for “MK-0646: anti-IGF1R monoclonal antibody dalotuzumab (MK0646; CAS no. 1005389-60-5)”, the “proliferation of H2122 cells” value in the series with H2122 NSCLC cells (in the absence of IGF1) is recorded as “did not significantly alter”. Besides, the “IGF1-dependent proliferation / relative cell growth of H2122 cells” value in the series on H2122 NSCLC cells (in the presence of IGF1 (10 ng)) is given as “statistically significant growth inhibition; also recorded: significantly blocked”. Besides, the “blocking IGF1 ability to bind directly to the IGF1 receptor” value with IGF1 receptor was “capable of blocking”. Besides, the figures for the tumor growth inhibition entry in series [1] (the 2 colorectal xenograft models with increased IGF1 RNA expression) and in series [1] (the 8 xenograft tumor models with low IGF1 expression) were “at least 50%” and “minimal or no tumor growth inhibition”, respectively. The MTD is 10 mg/kg in series [2] (with G alone); 5 mg/kg in series [2] (with Gemcitabine (G) and Erlotinib (E)).
